Experimental data as given in patent US20220160747A1, “PHARMACEUTICAL COMPOSITION COMPRISING NOVEL AZOLOPYRIMIDINE HETEROCYCLIC COMPOUND AS ACTIVE INGREDIENT” (KOREA RESEARCH INSTITUTE OF CHEMICAL TECHNOLOGY, priority 2019, published 2022).

Experiments:
[1] = target: T1, human CD73 recombinant protein (Homo sapiens, UniProt P21589); assay: Enzyme assay, CD73 (Malachite green kit); type: biochemical; conditions: AMP added, incubation 30 minutes
T1 construct: made in house
T1 sequence (P21589 27-549): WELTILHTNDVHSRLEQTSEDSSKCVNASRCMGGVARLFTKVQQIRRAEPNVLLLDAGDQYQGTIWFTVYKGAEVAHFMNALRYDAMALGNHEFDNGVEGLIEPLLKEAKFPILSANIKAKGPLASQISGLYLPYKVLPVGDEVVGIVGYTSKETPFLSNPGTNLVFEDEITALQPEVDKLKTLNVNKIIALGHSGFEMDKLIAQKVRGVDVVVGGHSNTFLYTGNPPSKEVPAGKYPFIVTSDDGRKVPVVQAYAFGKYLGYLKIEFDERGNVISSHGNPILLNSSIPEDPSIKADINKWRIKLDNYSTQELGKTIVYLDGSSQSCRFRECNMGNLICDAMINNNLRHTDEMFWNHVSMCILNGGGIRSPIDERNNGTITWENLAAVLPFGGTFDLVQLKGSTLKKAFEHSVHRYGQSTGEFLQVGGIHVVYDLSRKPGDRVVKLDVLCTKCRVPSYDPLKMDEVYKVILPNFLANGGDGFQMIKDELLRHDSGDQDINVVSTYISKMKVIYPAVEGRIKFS
Protocol: (§1) Referring to a method described in a reference document [Front Pharmacol. 2018 Mar. 1; 9:153], an enzyme assay was performed. Each of human CD73 and CD39 recombinant proteins was produced and then purified and isolated, and used in an enzyme assay. A buffer was basically 25 mM Tris, 5 mM MgCl2, pH 7.5 as an assay buffer, and for assay, human CD73 and CD39 recombinant protein were diluted at an appropriate concentration, respectively, in the assay buffer, adenosine monophosphate (AMP) (Sigma, Catalog #A1752) at an appropriate concentration was added, and then incubation was performed for 30 minutes. At the time, the azolopyrimidine heterocyclic compounds of the present invention were treated for each concentration and incubated together, thereby measuring a degree of inhibiting activity of CD73 or CD39.

[2] = target: T2, human CD39 recombinant protein (Homo sapiens, UniProt P49961); assay: Enzyme assay, CD39 (Malachite green kit); type: biochemical; conditions: AMP added, incubation 30 minutes
T2 construct: made in house
T2 sequence (P49961 1-510): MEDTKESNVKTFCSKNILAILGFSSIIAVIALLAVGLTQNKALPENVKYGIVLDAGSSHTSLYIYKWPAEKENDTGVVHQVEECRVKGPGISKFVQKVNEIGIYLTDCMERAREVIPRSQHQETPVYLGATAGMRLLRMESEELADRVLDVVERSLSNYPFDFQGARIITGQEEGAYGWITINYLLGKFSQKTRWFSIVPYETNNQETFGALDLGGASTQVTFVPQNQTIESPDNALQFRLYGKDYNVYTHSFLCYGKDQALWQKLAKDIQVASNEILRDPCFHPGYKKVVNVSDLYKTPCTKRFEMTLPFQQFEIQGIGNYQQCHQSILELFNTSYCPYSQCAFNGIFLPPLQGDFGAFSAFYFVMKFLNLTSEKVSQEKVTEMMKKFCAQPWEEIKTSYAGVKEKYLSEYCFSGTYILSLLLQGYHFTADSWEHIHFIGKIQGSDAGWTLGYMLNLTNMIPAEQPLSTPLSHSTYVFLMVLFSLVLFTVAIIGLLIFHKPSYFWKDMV
Protocol: as §1

Row | IC50 [1] [µM] | IC50 [2] [µM] | Compound
1 | < 1 | 1.1 to 5 | CN(Cc1cccc(F)c1)c1ncnc2c1ncn2[C@@H]1O[C@H](COC(c2ccccc2)(c2ccccc2)c2ccccc2)[C@@H](O)[C@H]1O [Compound 24, (2R,3R,4S,5R)-2-(6-((3-fluorobenzyl)(methyl)amino)-9H-purin-9-yl)-5-((trityloxy)methyl)tetrahydrofuran-3,4-diol]
2 | ≥ 30 |  | CN(Cc1cccc(F)c1)c1ncnc2c1ncn2[C@@H]1O[C@H](CO[Si](c2ccccc2)(c2ccccc2)C(C)(C)C)[C@H]2OC(C)(C)O[C@H]21 [Compound 1, 9-((3aR,4R,6R,6aR)-6-(((tert-butyldiphenylsilyl)oxy)methyl)-2,2-dimethyltetrahydrofuro[3,4-d][1,3]dioxol-4-yl)-N-(3-fluorobenzyl)-N-methyl-9H-purin-6-amine]
3 | 1.1 to 5 | 15.1 to 30 | CN(Cc1cccc(F)c1)c1ncnc2c1ncn2[C@@H]1O[C@H](COCc2ccc3ccccc3c2)[C@@H](O)[C@H]1O [Compound 18, (2R,3R,4S,5R)-2-(6-((3-fluorobenzyl)(methyl)amino)-9H-purin-9-yl)-5-((naphthalen-2-ylmethoxy)methyl)tetrahydrofuran-3,4-diol]
4 | 1.1 to 5 | 1.1 to 5 | CN(Cc1cccc(F)c1)c1ncnc2c1ncn2[C@@H]1O[C@H](COCc2ccc3ccccc3c2Br)[C@@H](O)[C@H]1O [Compound 19, (2R,3S,4R,5R)-2-(((1-bromonaphthalen-2-yl)methoxy)methyl)-5-(6-((3-fluorobenzyl)(methyl)amino)-9H-purin-9-yl)tetrahydrofuran-3,4-diol]
5 | 15.1 to 30 |  | CN(Cc1cccc(F)c1)c1ncnc2c1ncn2[C@@H]1O[C@H](COC(=O)Nc2ccccc2)[C@H]2OC(C)(C)O[C@H]21 [Compound 3, ((3aR,4R,6R,6aR)-6-(6-((3-fluorobenzyl)(methyl)amino)-9H-purin-9-yl)-2,2-dimethyltetrahydrofuro[3,4-d][1,3]dioxol-4-yl)methyl phenylcarbamate]
6 | < 1 | 5.1 to 15 | CN(Cc1cccc(F)c1)c1ncnc2c1ncn2[C@@H]1O[C@H](COCc2cc(C(F)(F)F)cc(C(F)(F)F)c2)[C@@H](O)[C@H]1O [Compound 14, (2R,3S,4R,5R)-2-(((3,5-bis(trifluoromethyl)benzyl)oxy)methyl)-5-(6-((3-fluorobenzyl)(methyl)amino)-9H-purin-9-yl)tetrahydrofuran-3,4-diol]
7 | 1.1 to 5 | ≥ 30 | COc1ccc(C(OC[C@H]2O[C@@H](n3cnc4c(Cl)ncnc43)[C@H](O)[C@@H]2O)(c2ccccc2)c2ccc(OC)cc2)cc1 [Compound 23, (2R,3S,4R,5R)-2-((bis(4-methoxyphenyl) (phenyl)methoxy)methyl)-5-(6-chloro-9H-purin-9-yl)tetrahydrofuran-3,4-diol]
8 | 5.1 to 15 |  | CN(Cc1cccc(F)c1)c1ncnc2c1ncn2[C@@H]1O[C@H](COC(=O)Nc2ccccc2)[C@@H](O)[C@H]1O [Compound 6, ((2R,3S,4R,5R)-5-(6-((3-fluorobenzyl)(methyl)amino)-9H-purin-9-yl)-3,4-dihydroxytetrahydrofuran-2-yl)methyl phenylcarbamate]
9 | < 1 | 1.1 to 5 | CN(Cc1cccc(F)c1)c1ncnc2c1ncn2[C@@H]1O[C@H](CO[Si](c2ccccc2)(c2ccccc2)C(C)(C)C)[C@@H](O)[C@H]1O [Compound 8, (2R,3S,4R,5R)-2-(((tert-butyldiphenylsilyl)oxy)methyl)-5-(6-((3-fluorobenzyl)(methyl)amino)-9H-purin-9-yl)tetrahydrofuran-3,4-diol]

The remaining lines, values behind:

Row | Compound | IC50 [1] [µM] | IC50 [2] [µM]
10 | CN(Cc1cccc(F)c1)c1ncnc2c1ncn2[C@@H]1O[C@H](COC(=S)Nc2ccccc2)[C@H]2OC(C)(C)O[C@H]21 [Compound 4, O-(((3aR,4R,6R,6aR)-6-(6-((3-fluorobenzyl)(methyl)amino)-9H-purin-9-yl)-2,2-dimethyltetrahydrofuro[3,4-d][1,3]dioxol-4-yl)methyl) phenylcarbamothioate] | 15.1 to 30 | 
11 | CN(Cc1cccc(F)c1)c1ncnc2c1ncn2[C@@H]1O[C@H](COCc2ccc(S(F)(F)(F)(F)F)cc2)[C@@H](O)[C@H]1O [Compound 15, (2R,3R,4S,5R)-2-(6-((3-fluorobenzyl)(methyl)amino)-9H-purin-9-yl)-5-(((4-(pentafluorothio)benzyl)oxy)methyl)tetrahydrofuran-3,4-diol] | 1.1 to 5 | 1.1 to 5
12 | CN(Cc1cccc(F)c1)c1ncnc2c1ncn2[C@@H]1O[C@H](COC(=O)c2ccccc2)[C@@H](O)[C@H]1O [Compound 9, ((2R,3S,4R,5R)-5-(6-((3-fluorobenzyl)(methyl)amino)-9H-purin-9-yl)-3,4-dihydroxytetrahydrofuran-2-yl)methyl benzoate] | 5.1 to 15 | 
13 | COc1ccc(C(OC[C@H]2O[C@@H](n3cnc4c(N(C)Cc5cccc(F)c5)ncnc43)[C@H](O)[C@@H]2O)(c2ccccc2)c2ccc(OC)cc2)cc1 [Compound 25, (2R,3S,4R,5R)-2-((bis(4-methoxyphenyl) (phenyl)methoxy)methyl)-5-(6-((3-fluorobenzyl)(methyl)amino)-9H-purin-9-yl)tetrahydrofuran-3,4-diol] | < 1 | < 1
14 | O[C@@H]1[C@H](O)[C@@H](COC(c2ccccc2)(c2ccccc2)c2ccccc2)O[C@H]1n1cnc2c(Cl)ncnc21 [Compound 22, (2R,3R,4S,5R)-2-(6-chloro-9H-purin-9-yl)-5-((trityloxy)methyl)tetrahydrofuran-3,4-diol] | < 1 | 5.1 to 15
15 | CN(Cc1cccc(F)c1)c1ncnc2c1ncn2[C@@H]1O[C@H](COCc2ccc(-c3ccccc3)cc2)[C@@H](O)[C@H]1O [Compound 13, (2R,3S,4R,5R)-2-(([1,1′-biphenyl]-4-ylmethoxy)methyl)-5-(6-((3-fluorobenzyl)(methyl)amino)-9H-purin-9-yl)tetrahydrofuran-3,4-diol] | < 1 | 1.1 to 5
16 | CN(Cc1cccc(F)c1)c1ncnc2c1ncn2[C@@H]1O[C@H](COCc2ccc3ccccc3c2)[C@H]2OC(C)(C)O[C@H]21 [Compound 16, 9-((3aR,4R,6R,6aR)-2,2-dimethyl-6-((naphthalen-2-ylmethoxy)methyl)tetrahydrofuro[3,4-d][1,3]dioxol-4-yl)-N-(3-fluorobenzyl)-N-methyl-9H-purin-6-amine] | 1.1 to 5 | 5.1 to 15
17 | CN(Cc1cccc(F)c1)c1ncnc2c1ncn2[C@@H]1O[C@H](CO[Si](C)(C)C(C)(C)C)[C@@H](O)[C@H]1O [Compound 20, (2R,3S,4R,5R)-2-(((tert-butyldimethylsilyl)oxy)methyl)-5-(6-((3-fluorobenzyl)(methyl)amino)-9H-purin-9-yl)tetrahydrofuran-3,4-diol] | 1.1 to 5 | 1.1 to 5
18 | CN(Cc1cccc(F)c1)c1ncnc2c1ncn2[C@@H]1O[C@H](CO[Si](c2ccccc2)(c2ccccc2)c2ccccc2)[C@@H](O)[C@H]1O [Compound 21, (2R,3R,4S,5R)-2-(6-((3-fluorobenzyl)(methyl)amino)-9H-purin-9-yl)-5-(((triphenylsilyl)oxy)methyl)tetrahydrofuran-3,4-diol] | < 1 | 1.1 to 5
19 | CN(Cc1cccc(F)c1)c1ncnc2c1ncn2[C@@H]1O[C@H](COC(=S)Nc2ccccc2)[C@@H](O)[C@H]1O [Compound 7, O-(((2R,3S,4R,5R)-5-(6-((3-fluorobenzyl)(methyl)amino)-9H-purin-9-yl)-3,4-dihydroxytetrahydrofuran-2-yl)methyl) phenylcarbamothioate] | 1.1 to 5 | ≥ 30
20 | CN(Cc1cccc(F)c1)c1ncnc2c1ncn2[C@@H]1O[C@H](COCc2ccc3ccccc3c2Br)[C@H]2OC(C)(C)O[C@H]21 [Compound 17, 9-((3aR,4R,6R,6aR)-6-(((1-bromonaphthalen-2-yl)methoxy)methyl)-2,2-dimethyltetrahydrofuro[3,4-d][1,3]dioxol-4-yl)-N-(3-fluorobenzyl)-N-methyl-9H-purin-6-amine] | 1.1 to 5 | 1.1 to 5
